Test results from US20170100489A1, “POLYETHYLENE GLYCOL-MODIFIED INTEGRIN BLOCKER HM-3 AND USE THEREOF” (HANMEI XU, priority 2012, published 2017).
Where two headings read alike, the source gives them in different places. Marks after values point to notes of the source that are not given here. Where no end group is shown, it is not given here. mPEG‑SC20k = methoxy polyethylene glycol-succinimidyl-carbonate, 20000 Da

What was measured:
[1] = system: sarcoma HT-1080 xenograft tumors; assay: Tumor growth inhibition, HT-1080 xenograft; conditions: 36.7 mg/kg
Procedure: Tumor diameter was measured with a vernier caliper. […] After administration, all mice were sacrificed. Stripped the tumors and weighed.

[2] = system: human pancreatic cancer SW-1990 xenograft tumors; assay: Tumor growth inhibition, SW-1990 xenograft; conditions: for Rate of inhibiting tumors / Tumor weight: Once 3 days
Procedure: Picked the tumor tissue of vigorous growth and was cut into pieces of about 1.5 mm^3. Under sterile conditions, the tumor tissue was inoculated subcutaneously on the right of nude mice. Tumor diameter was measured with a Vernier caliper. The animals which had tumors with a size of 100-200 mm^3 were randomly divided into groups. The effect of polypeptide on anti-tumor was dynamically observed through the method of measuring tumor diameter. The times of measuring tumor diameter were once 2 days, and meantime, weighed mice. The mice in experimental group were infused polypeptide through tail vein, once 3 days. The mice in the placebo group were injected saline with the same volume.
(§2) a, b respectively represent the length and width. According to the result of measurement, calculate the relative tumor volume. Evaluation of antitumor activity is relative tumor proliferation rate T/C(%). The formula is as follows: T/C(%)^=TRTV/CRTV×100%
TRTV:Treatment group RTV; CRTV: negative control group RTV

[3] = system: human endometrial cancer HHUA xenograft tumors; assay: Tumor growth inhibition, HHUA xenograft; conditions: for Rate of inhibiting tumors / Tumor weight: Once 3 days
Procedure: Human endometrial cancer HHUA cell lines in logarithmic growth phase were picked, and made into 5×10^7/ml cell suspension of under sterile conditions, and then 0.1 ml suspension was inoculated subcutaneously at the right armpit of nude mice. Tumor diameter was measured with a vernier caliper. The animals which had tumors with a size of 100-200 mm^3 were randomly divided into groups. The effect of polypeptide on anti-tumor was dynamically observed through the method of measuring tumor diameter. The times of measuring tumor diameter were once 2 days, and meantime, weighed mice. The mice in experimental group were infused polypeptide through tail vein. The mice in the placebo group were injected saline with the same volume, once 1 day; Taxol group: 10 mg/kg, once 1 week; Endostar group: 2.5 mg/kg, once 1 day; The groups of high, intermediate and low polypeptide: 6, 3, 1.5 mg/kg, respectively, once 1 day. After administration, all mice were sacrificed. Stripped the tumors and weighed.

[4] = system: human cervical cancer HeLa xenograft tumors; assay: Tumor growth inhibition, HeLa xenograft; conditions: for Rate of inhibiting tumors / Tumor weight: Once 3 days
Procedure: Human cervical cancer HeLa cell lines in logarithmic growth phase were picked, and made into 5×10^7/ml cell suspension of under sterile conditions, and then 0.1 ml suspension was inoculated subcutaneously at the right armpit of nude mice. Tumor diameter was measured with a vernier caliper. The animals which had tumors with a size of 100-200 mm^3 were randomly divided into groups. The effect of polypeptide on anti-tumor was dynamically observed through the method of measuring tumor diameter. The times of measuring tumor diameter were once 2 days, and meantime, weighed mice. The mice in experimental group were infused polypeptide through tail vein. The mice in the placebo group were injected saline with the same volume, once 1 day; Taxol group: 10 mg/kg, once 1 week; Endostar group: 2.5 mg/kg, once 1 day; The groups of high, intermediate and low polypeptide: 6, 3, 1.5 mg/kg, respectively, once 1 day. After administration, all mice were sacrificed. Stripped the tumors and weighed.

[5] = system: human colon cancer HT-29 xenograft tumors; assay: Tumor growth inhibition, HT-29 xenograft; conditions: for Rate of inhibiting tumors / Tumor weight: Once 3 days
Procedure: Human colon cancer HT-29 cell lines in logarithmic growth phase were picked, and made into 5×10^7/ml cell suspension of under sterile conditions, and then 0.1 ml suspension was inoculated subcutaneously at the right armpit of nude mice. Tumor diameter was measured with a vernier caliper. The animals which had tumors with a size of 100-200 mm^3 were randomly divided into groups. The effect of polypeptide on anti-tumor was dynamically observed through the method of measuring tumor diameter. The times of measuring tumor diameter were once 2 days, and meantime, weighed mice. The mice in experimental group were infused polypeptide through tail vein. The mice in the placebo group were injected saline with the same volume, once 1 day; Taxol group: 10 mg/kg, once 1 week; Endostar group: 2.5 mg/kg, once 1 day; The groups of high, intermediate and low polypeptide: 6, 3, 1.5 mg/kg, respectively, once 1 day. After administration, all mice were sacrificed. Stripped the tumors and weighed.

integrin ανβ3 = molecular target: T1, integrin ανβ3 (Homo sapiens, UniProt P05106+P06756); assay: Combination with targets through flow cytometry (FITC labeled polypeptide, function-blocking antibody); assay type: binding; conditions: Bel-7402 and MCF-7 cells, 2 mg/ml, FIG. 1
T1 construct: Bel-7402 tumor cells and MCF-7 fusion cultured to 80%; endogenous in cells; host or cells: Bel-7402 and MCF-7 tumor cells
T1 sequence (P06756 31-889 limits assumed): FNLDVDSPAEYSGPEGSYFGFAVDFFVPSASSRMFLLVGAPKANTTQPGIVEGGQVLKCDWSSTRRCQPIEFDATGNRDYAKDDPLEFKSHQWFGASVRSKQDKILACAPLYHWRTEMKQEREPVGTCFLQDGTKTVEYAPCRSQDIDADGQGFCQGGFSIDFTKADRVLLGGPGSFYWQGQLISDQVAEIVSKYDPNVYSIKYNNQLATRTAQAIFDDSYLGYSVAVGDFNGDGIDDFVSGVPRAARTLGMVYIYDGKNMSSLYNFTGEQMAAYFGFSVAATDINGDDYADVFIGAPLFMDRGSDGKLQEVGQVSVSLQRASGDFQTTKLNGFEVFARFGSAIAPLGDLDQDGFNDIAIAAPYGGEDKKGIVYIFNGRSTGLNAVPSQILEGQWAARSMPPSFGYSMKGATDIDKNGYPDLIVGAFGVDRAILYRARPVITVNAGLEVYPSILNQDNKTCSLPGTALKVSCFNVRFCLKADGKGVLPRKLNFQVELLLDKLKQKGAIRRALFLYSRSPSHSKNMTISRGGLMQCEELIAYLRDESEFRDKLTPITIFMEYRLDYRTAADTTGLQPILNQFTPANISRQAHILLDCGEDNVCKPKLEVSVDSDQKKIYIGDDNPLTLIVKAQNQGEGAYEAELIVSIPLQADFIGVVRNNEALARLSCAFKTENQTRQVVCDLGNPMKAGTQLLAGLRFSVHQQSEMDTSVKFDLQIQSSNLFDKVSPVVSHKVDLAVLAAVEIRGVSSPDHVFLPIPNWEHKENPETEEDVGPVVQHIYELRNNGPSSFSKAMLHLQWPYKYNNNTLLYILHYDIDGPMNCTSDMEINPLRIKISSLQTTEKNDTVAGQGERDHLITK
T1 sequence (P06756 891-1048 partner limits assumed): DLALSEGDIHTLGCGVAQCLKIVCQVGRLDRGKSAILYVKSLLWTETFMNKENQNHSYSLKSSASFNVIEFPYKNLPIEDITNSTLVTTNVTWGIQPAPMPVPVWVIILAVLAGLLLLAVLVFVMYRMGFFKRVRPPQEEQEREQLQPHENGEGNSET
T1 sequence (P05106 27-788): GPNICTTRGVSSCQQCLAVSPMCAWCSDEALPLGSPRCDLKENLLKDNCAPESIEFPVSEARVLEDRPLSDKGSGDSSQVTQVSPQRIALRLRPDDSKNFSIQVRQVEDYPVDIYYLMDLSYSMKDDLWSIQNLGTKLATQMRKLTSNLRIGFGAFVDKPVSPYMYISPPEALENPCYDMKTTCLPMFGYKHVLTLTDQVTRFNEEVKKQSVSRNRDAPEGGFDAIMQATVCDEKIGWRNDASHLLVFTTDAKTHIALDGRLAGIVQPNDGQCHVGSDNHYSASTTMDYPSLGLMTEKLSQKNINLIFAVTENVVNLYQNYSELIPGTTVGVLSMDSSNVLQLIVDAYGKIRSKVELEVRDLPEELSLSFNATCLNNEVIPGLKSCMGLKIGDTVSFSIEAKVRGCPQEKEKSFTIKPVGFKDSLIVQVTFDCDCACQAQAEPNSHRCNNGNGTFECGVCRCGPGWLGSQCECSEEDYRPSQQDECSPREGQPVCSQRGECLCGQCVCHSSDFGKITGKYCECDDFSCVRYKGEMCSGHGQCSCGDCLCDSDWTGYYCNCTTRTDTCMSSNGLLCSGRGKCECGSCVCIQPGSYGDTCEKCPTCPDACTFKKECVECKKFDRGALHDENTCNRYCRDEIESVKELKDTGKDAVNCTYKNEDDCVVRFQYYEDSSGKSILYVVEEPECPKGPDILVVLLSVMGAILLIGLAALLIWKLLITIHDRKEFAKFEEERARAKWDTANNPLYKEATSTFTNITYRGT
Procedure: (§1) • (1) Bel-7402 tumor cells and MCF-7 fusion cultured to 80% after the 24-well plate, trypsinized collected, washed with ice-cold PBS twice, the cells were labeled prior containing 1% BSA resuspended in PBS 30 min. • (2) 2 μl mouse anti-human ανβ3 function-blocking monoclonal antibody (1.0 μg/μl, 1:200), mouse anti-human 2 μl α5β1 function-blocking monoclonal antibody (1.0 μg/μl, 1:200) and the cell suspension were incubated at 4° C. 1.5 h. • (3) collected the labeled cells and washed with ice-cold PBS twice, followed by 100 μl FITC labeled polypeptide modified mPEG-SC20k-HM-3 (2 mg/ml) and the cell suspension were incubated at 4° C. incubate 1.5 h • (4) After labeled, the cells were collected and washed with ice-cold PBS 2 times, followed by resuspension with 400 μl PBS and analyzed by flow cytometry, and detected intensity of the FITC fluorescence through channel FL1.

integrin α5β1 = molecular target: T2, integrin α5β1 (Homo sapiens, UniProt P05556+P08648); assay: as above; assay type: binding; conditions: Bel-7402 and MCF-7 cells, 2 mg/ml, FIG. 1
T2 construct: Bel-7402 tumor cells and MCF-7 fusion cultured to 80%; endogenous in cells; host or cells: Bel-7402 and MCF-7 tumor cells
T2 sequence (P08648 42-894 limits assumed): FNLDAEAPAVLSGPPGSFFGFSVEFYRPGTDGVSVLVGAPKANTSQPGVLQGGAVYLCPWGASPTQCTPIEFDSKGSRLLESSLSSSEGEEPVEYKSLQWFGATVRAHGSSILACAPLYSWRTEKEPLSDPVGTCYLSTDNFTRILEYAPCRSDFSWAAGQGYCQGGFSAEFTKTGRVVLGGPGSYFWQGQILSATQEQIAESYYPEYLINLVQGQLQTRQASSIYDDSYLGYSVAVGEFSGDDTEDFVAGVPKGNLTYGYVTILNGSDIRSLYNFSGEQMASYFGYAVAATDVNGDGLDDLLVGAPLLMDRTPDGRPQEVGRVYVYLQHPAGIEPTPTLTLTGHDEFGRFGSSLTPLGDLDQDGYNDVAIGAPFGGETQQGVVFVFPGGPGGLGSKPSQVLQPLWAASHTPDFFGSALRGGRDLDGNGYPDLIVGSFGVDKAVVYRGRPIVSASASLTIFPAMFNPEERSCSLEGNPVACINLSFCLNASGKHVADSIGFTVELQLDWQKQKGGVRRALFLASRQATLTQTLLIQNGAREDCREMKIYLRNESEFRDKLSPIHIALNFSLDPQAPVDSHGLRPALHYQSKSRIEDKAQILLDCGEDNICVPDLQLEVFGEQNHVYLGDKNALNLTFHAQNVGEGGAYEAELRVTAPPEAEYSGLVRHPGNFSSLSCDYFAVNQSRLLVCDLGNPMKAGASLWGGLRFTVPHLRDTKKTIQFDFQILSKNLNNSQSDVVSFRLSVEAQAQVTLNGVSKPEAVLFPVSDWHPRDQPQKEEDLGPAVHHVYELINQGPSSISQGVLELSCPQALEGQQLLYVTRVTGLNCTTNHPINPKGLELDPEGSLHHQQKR
T2 sequence (P08648 895-1049 partner limits assumed): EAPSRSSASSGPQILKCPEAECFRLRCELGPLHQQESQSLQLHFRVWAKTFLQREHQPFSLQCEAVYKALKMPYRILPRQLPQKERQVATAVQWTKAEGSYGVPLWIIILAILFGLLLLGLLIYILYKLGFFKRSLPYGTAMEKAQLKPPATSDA
T2 sequence (P05556 21-798): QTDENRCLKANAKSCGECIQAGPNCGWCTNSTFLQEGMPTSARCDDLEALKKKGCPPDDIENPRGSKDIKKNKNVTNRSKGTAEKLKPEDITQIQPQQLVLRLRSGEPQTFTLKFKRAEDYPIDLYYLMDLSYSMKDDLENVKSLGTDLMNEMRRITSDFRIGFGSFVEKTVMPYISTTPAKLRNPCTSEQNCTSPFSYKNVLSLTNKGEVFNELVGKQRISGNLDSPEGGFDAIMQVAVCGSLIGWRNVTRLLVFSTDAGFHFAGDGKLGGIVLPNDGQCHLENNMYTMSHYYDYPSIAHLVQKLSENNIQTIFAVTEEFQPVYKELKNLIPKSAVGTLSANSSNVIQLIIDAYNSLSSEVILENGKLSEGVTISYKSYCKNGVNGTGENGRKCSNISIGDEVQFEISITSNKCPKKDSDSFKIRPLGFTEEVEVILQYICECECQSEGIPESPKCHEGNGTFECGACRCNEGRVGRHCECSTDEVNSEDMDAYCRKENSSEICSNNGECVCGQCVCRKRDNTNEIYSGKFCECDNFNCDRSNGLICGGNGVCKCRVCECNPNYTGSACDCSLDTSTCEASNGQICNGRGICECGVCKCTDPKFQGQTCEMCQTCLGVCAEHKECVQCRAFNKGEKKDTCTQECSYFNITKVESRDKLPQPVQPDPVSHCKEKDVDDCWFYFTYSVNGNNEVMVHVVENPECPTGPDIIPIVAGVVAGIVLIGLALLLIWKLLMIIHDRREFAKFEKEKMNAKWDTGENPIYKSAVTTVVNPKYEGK
Procedure: as §1

[6] = rat, in vivo, iv
Procedure: SD rats were randomly divided into six groups with the same number for male and female. Take three groups were administered intravenously integrin antagonist polypeptide with a high dose of 52 mg/kg (equivalent to HM-3 4.2 mg/kg), an intermediate dose of 26 mg/kg (equivalent to HM-3 2.1 mg/kg), a low-dose of 13 mg/kg (equivalent to HM-3 1.05 mg/kg). The other 3 groups were injected HM-3 with a high dose of 4.2 mg/kg, an intermediate dose of 2.1 mg/kg, a low doses of 1.05 mg/kg. Collected whole blood 0.5 ml once from the orbital venous plexus after 0.5 h, 1 h, 2 h, 3 h, 6 h, 12 h, 24 h, 48 h, 72 h, 96 h, 108 h, 132 h of drug administration, and applied heparin to get the effect of anti-coagulation. 12000 rpm/2 min centrifuged plasma. Draw supernatant 200 μl and 80° C. preheated PBS (0.05 M pH7.4) buffer 600 μl and mixed. Bath in the 80° C. water for 30 min. Centrifuged 2 min at 12000 rpm, and collected the supernatant, and stored in the condition of −20° C. Dissolved at room temperature, measured integrin antagonist peptide plasma concentration by ELISA.

[7] = system: human ovarian cancer SK-OV-3 xenograft tumors; assay: Tumor growth inhibition, SK-OV-3 xenograft; conditions: for Rate of inhibiting tumors / Tumor weight: Once 3 days
Procedure: Human ovarian cancer SK-OV-3 cell lines in logarithmic growth phase were picked, and made into 5×10^7/ml cell suspension of under sterile conditions, and then 0.1 ml suspension was inoculated subcutaneously at the right armpit of nude mice. Tumor diameter was measured with a vernier caliper. The animals which had tumors with a size of 100-200 mm^3 were randomly divided into groups. The effect of polypeptide on anti-tumor was dynamically observed through the method of measuring tumor diameter. The times of measuring tumor diameter were once 2 days, and meantime, weighed mice. The mice in experimental group were infused polypeptide through tail vein. The mice in the placebo group were injected saline with the same volume, once 1 day; Cisplatin group: 10 mg/kg, once 1 week; Endostar group: 2.5 mg/kg, once 1 day; The groups of high, intermediate and low polypeptide: 6, 3, 1.5 mg/kg, respectively, once 1 day. After administration, all mice were sacrificed. Stripped the tumors and weighed.

[8] = system: human nasopharyngeal cancer CNE xenograft tumors; assay: Tumor growth inhibition, CNE xenograft; conditions: for Rate of inhibiting tumors / Tumor weight: Once 3 days
Procedure: (§3) Picked the tumor tissue of vigorous growth and was cut into pieces of about 1.5 mm^3. Under sterile conditions, the tumor tissue was inoculated subcutaneously on the right of nude mice. Tumor diameter was measured with a vernier caliper. The animals which had tumors with a size of 100-200 mm^3 were randomly divided into groups. The effect of polypeptide on anti-tumor was dynamically observed through the method of measuring tumor diameter. The times of measuring tumor diameter were once 2 days, and meantime, weighed mice. The mice in experimental group were infused polypeptide through tail vein, once 3 days. The mice in the placebo group were injected saline with the same volume. Tumor volume formula:
a, b respectively represent the length and width. According to the result of measurement, calculate the relative tumor volume. Evaluation of antitumor activity is relative tumor proliferation rate T/C(%). The formula is as follows: T/C(%)^−TRTV/CRTV×100%
TRTV: Treatment Group RTV; CRTV: Negative Control Group RTV

[9] = system: human lung cancer H460 xenograft tumors; assay: Tumor growth inhibition, H460 xenograft; conditions: for Rate of inhibiting tumors / Tumor weight: Once 3 days
Procedure: as §3, §2
TRTV: Treatment group RTV; CRTV: negative control group RTV

[10] = system: human testicular cancer 5637 xenograft tumors; assay: Tumor growth inhibition, 5637 xenograft; conditions: for Rate of inhibiting tumors / Tumor weight: Once 3 days
Procedure: Human testicular cancer 5637 cell lines in logarithmic growth phase were picked, and made into 5×10^7/ml cell suspension of under sterile conditions, and then 0.1 ml suspension was inoculated subcutaneously at the right armpit of nude mice. Tumor diameter was measured with a vernier caliper. The animals which had tumors with a size of 100-200 mm^3 were randomly divided into groups. The effect of polypeptide on anti-tumor was dynamically observed through the method of measuring tumor diameter. The times of measuring tumor diameter were once 2 days, and meantime, weighed mice. The mice in experimental group were infused polypeptide through tail vein. […] After administration, all mice were sacrificed. Stripped the tumors and weighed.

[11] = system: human prostate cancer DU-145 xenograft tumors; assay: Tumor growth inhibition, DU-145 xenograft; conditions: for Rate of inhibiting tumors / Tumor weight: Once 3 days
Procedure: Human prostate cancer DU-145 cell lines in logarithmic growth phase were picked, and made into 5×10^7/ml cell suspension of under sterile conditions, and then 0.1 ml suspension was inoculated subcutaneously at the right armpit of nude mice. Tumor diameter was measured with a vernier caliper. The animals which had tumors with a size of 100-200 mm^3 were randomly divided into groups. The effect of polypeptide on anti-tumor was dynamically observed through the method of measuring tumor diameter. The times of measuring tumor diameter were once 2 days, and meantime, weighed mice. The mice in experimental group were infused polypeptide through tail vein. The mice in the placebo group were injected saline with the same volume, once 1 day; Cisplatin group: 10 mg/kg, once 1 week; Endostar group: 2.5 mg/kg, once 1 day; The groups of high, intermediate and low polypeptide: 6, 3, 1.5 mg/kg, respectively, once 1 day. After administration, all mice were sacrificed. Stripped the tumors and weighed.

[12] = high, 36.7 mg/kg, listed as polypeptide
[13] = intermediate, 18.75 mg/kg, listed as polypeptide
[14] = low, 9.38 mg/kg, listed as polypeptide

Substance: mPEG-SC20k-Ile-Val-Arg-Arg-Ala-Asp-Arg-Ala-Ala-Val-Pro-Gly-Gly-Gly-Gly-Arg-Gly-Asp ({mPEG‑SC20k}-IVRRADRAAVPGGGGRGD) [mPEG-SC20k-HM-3]
- Rate of inhibiting tumors ([1]; Once 3 days): 65.04%*
- Tumor weight ([1]; Once 3 days): 0.678 g
- Rate of inhibiting tumors ([1]; Once 3 days, listed as polypeptide): 65.04%
- inhibition of tumor growth compared with negative control ([1]; P<0.05): significant inhibition role
- inhibition of tumor growth compared with negative control ([2]; 36.7 mg/kg, P<0.05): significant inhibition role
- Rate of inhibiting tumors ([2]; high, 36.7 mg/kg): 67.76%*
- Tumor weight ([2]; high, 36.7 mg/kg): 0.446 g
- Rate of inhibiting tumors [2, 12]: 67.76%
- Rate of inhibiting tumors ([2]; intermediate, 18.75 mg/kg): 64.55%
- Tumor weight ([2]; intermediate, 18.75 mg/kg): 0.491 g
- Rate of inhibiting tumors [2, 13]: 64.55%
- Rate of inhibiting tumors ([2]; low, 9.38 mg/kg): 50.40%
- Tumor weight ([2]; low, 9.38 mg/kg): 0.687 g
- Rate of inhibiting tumors [2, 14]: 50.40%
- inhibition of tumor growth compared with negative control ([3]; 36.7 mg/kg, P<0.05): significant inhibition role
- Rate of inhibiting tumors ([3]; high, 36.7 mg/kg): 62.47%*
- Tumor weight ([3]; high, 36.7 mg/kg): 0.453 g
- Rate of inhibiting tumors [3, 12]: 62.47%
- Rate of inhibiting tumors ([3]; intermediate, 18.75 mg/kg): 53.65%
- Tumor weight ([3]; intermediate, 18.75 mg/kg): 0.560 g
- Rate of inhibiting tumors [3, 13]: 53.65%
- Rate of inhibiting tumors ([3]; low, 9.38 mg/kg): 51.38%
- Tumor weight ([3]; low, 9.38 mg/kg): 0.587 g
- Rate of inhibiting tumors [3, 14]: 51.38%
- inhibition of tumor growth compared with negative control ([4]; 36.7 mg/kg, P<0.05): significant inhibition role
- Rate of inhibiting tumors ([4]; high, 36.7 mg/kg): 82.07%*
- Tumor weight ([4]; high, 36.7 mg/kg): 0.222 g
- Rate of inhibiting tumors [4, 12]: 82.07%
- Rate of inhibiting tumors ([4]; intermediate, 18.75 mg/kg): 74.11%
- Tumor weight ([4]; intermediate, 18.75 mg/kg): 0.320 g
- Rate of inhibiting tumors [4, 13]: 74.11%
- Rate of inhibiting tumors ([4]; low, 9.38 mg/kg): 63.32%
- Tumor weight ([4]; low, 9.38 mg/kg): 0.453 g
- Rate of inhibiting tumors [4, 14]: 63.32%
- inhibition of tumor growth compared with negative control ([5]; 36.7 mg/kg, P<0.05): significant inhibition role
- Rate of inhibiting tumors ([5]; high, 36.7 mg/kg): 55.98%*
- Tumor weight ([5]; high, 36.7 mg/kg): 0.493 g
- Rate of inhibiting tumors [5, 12]: 55.98%
- Rate of inhibiting tumors ([5]; intermediate, 18.75 mg/kg): 45.45%
- Tumor weight ([5]; intermediate, 18.75 mg/kg): 0.611 g
- Rate of inhibiting tumors [5, 13]: 45.45%
- Rate of inhibiting tumors ([5]; low, 9.38 mg/kg): 37.05%
- Tumor weight ([5]; low, 9.38 mg/kg): 0.705 g
- Rate of inhibiting tumors [5, 14]: 37.05%
- binding to integrin ανβ3 (integrin ανβ3): able to bind
- binding to integrin α5β1 (integrin α5β1): able to bind
- t1/2β ([6]; both, SD): 20.13 h
- t1/2p [6]: 20.13 h
- t1/2β [6]: 20.13 h
- inhibition of tumor growth compared with negative control ([7]; 36.7 mg/kg, P<0.05): significant inhibition role
- Rate of inhibiting tumors ([7]; high, 36.7 mg/kg): 50.40%*
- Tumor weight ([7]; high, 36.7 mg/kg): 0.627 g
- Rate of inhibiting tumors [7, 12]: 50.40%
- Rate of inhibiting tumors ([7]; intermediate, 18.75 mg/kg): 44.62%
- Tumor weight ([7]; intermediate, 18.75 mg/kg): 0.700 g
- Rate of inhibiting tumors [7, 13]: 44.62%
- Rate of inhibiting tumors ([7]; low, 9.38 mg/kg): 42.33%
- Tumor weight ([7]; low, 9.38 mg/kg): 0.730 g
- Rate of inhibiting tumors [7, 14]: 42.33%
- inhibition of tumor growth compared with negative control ([8]; 36.7 mg/kg, P<0.05): significant inhibition role
- toxic and side effects ([8]; 36.7 mg/kg, compared with positive cisplatin group): no obvious toxic and side effects
- Rate of inhibiting tumors ([8]; high, 36.7 mg/kg): 68.22%*
- Tumor weight ([8]; high, 36.7 mg/kg): 0.382 g
- Rate of inhibiting tumors [8, 12]: 68.22%
- Rate of inhibiting tumors ([8]; intermediate, 18.75 mg/kg): 66.19%
- Tumor weight ([8]; intermediate, 18.75 mg/kg): 0.406 g
- Rate of inhibiting tumors ([8]; low, 9.38 mg/kg): 55.32%
- Tumor weight ([8]; low, 9.38 mg/kg): 0.537 g
- Rate of inhibiting tumors [8, 14]: 55.32%
- inhibition of tumor growth compared with negative control ([9]; 36.7 mg/kg, P<0.05): significant inhibition role
- Rate of inhibiting tumors ([9]; high, 36.7 mg/kg): 66.45%*
- Tumor weight ([9]; high, 36.7 mg/kg): 0.266 g
- Rate of inhibiting tumors [9, 12]: 66.45%
- Rate of inhibiting tumors ([9]; intermediate, 18.75 mg/kg): 55.37%
- Tumor weight ([9]; intermediate, 18.75 mg/kg): 0.354 g
- Rate of inhibiting tumors [9, 13]: 55.37%
- Rate of inhibiting tumors ([9]; low, 9.38 mg/kg): 54.28%
- Tumor weight ([9]; low, 9.38 mg/kg): 0.363 g
- Rate of inhibiting tumors [9, 14]: 54.28%
- inhibition of tumor growth compared with negative control ([10]; 36.7 mg/kg, P<0.05): significant inhibition role
- Rate of inhibiting tumors ([10]; high, 36.7 mg/kg): 60.20%*
- Tumor weight ([10]; high, 36.7 mg/kg): 0.802 g
- Rate of inhibiting tumors [10, 12]: 60.20%
- Rate of inhibiting tumors ([10]; intermediate, 18.75 mg/kg): 51.32%
- Tumor weight ([10]; intermediate, 18.75 mg/kg): 0.981 g
- Rate of inhibiting tumors [10, 13]: 51.32%
- Rate of inhibiting tumors ([10]; low, 9.38 mg/kg): 50.99%
- Tumor weight ([10]; low, 9.38 mg/kg): 0.988 g
- Rate of inhibiting tumors [10, 14]: 50.99%
- inhibition of tumor growth compared with negative control ([11]; 36.7 mg/kg, P<0.05): significant inhibition role
- Rate of inhibiting tumors ([11]; high, 36.7 mg/kg): 77.46%*
- Tumor weight ([11]; high, 36.7 mg/kg): 0.417 g
- Rate of inhibiting tumors [11, 12]: 77.46%
- Rate of inhibiting tumors ([11]; intermediate, 18.75 mg/kg): 67.48%
- Tumor weight ([11]; intermediate, 18.75 mg/kg): 0.603 g
- Rate of inhibiting tumors [11, 13]: 67.48%
- Rate of inhibiting tumors ([11]; low, 9.38 mg/kg): 57.87%
- Tumor weight ([11]; low, 9.38 mg/kg): 0.781 g
- Rate of inhibiting tumors [11, 14]: 57.87%
